From patent publication US11472808B2, “Substituted pyrrolo[1,2-c]pyrimidines as hepatitis B antiviral agents” (Enanta Pharmaceuticals, Inc., priority 2019, dated 2022)

Test system: HBV
Assay: HepAD38 anti-HBV assay: reduction of viral product accumulation (virion DNA qPCR, HBsAg/HBeAg ELISA)
Assay type: cell-based
Details: Hepatitis B virus, 120 h; HepAD38 cells; concentration reducing viral product accumulation by 50% relative to no drug controls; harvest five days after compound addition; read-out: HepAD38 EC50
In short: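 Tetracycline-free HepAD38 cells treated 5 days with compound (1:200 DMSO dilution), or 8 days with media and compound refreshed on d2 and d5. Virion DNA quantified by qPCR; HBsAg or HBeAg by ELISA. EC50 is the concentration reducing viral product accumulation 50% versus no-drug controls.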

`O=C(O)c1cccc(S(=O)(=O)NC[C@@]2(O)CC3=C(c4ccn(C(F)F)n4)[C@H](c4ccc(F)cc4Cl)N=C(c4nccs4)N3C2)c1` [Example 133] was tested, and the EC50 was > 400 nM.
In the case of `O=C(Nc1ccccc1)N1CCN([C@H]2CC3=C(c4ccn(C(F)F)n4)[C@H](c4ccc(F)cc4Cl)N=C(c4nccs4)N3C2)CC1` [Example 49], the EC50 is reported as > 400 nM.
`CC(=O)OCCCS(=O)(=O)N([C@H]1CC2=C(c3ccn(C(F)F)n3)[C@H](c3ccc(F)cc3Cl)N=C(c3nccs3)N2C1)S(=O)(=O)CCCOC(C)=O` [Example 311] was tested, and the EC50 was < 100 nM.
With `Fc1ccc([C@@H]2N=C(c3nccs3)N3C[C@@H](N4CCNCC4)CC3=C2c2ccn(C(F)F)n2)c(Cl)c1` [Example 45] the EC50 was > 400 nM.
Work on `COC(=O)c1ccccc1CS(=O)(=O)N[C@H]1CC2=C(c3ccn(C(F)F)n3)[C@H](c3ccc(F)cc3Cl)N=C(c3nccs3)N2C1` [Example 22] yielded an EC50 of 100 to 400 nM.
`COC(=O)C1CCCN(C(=O)C2CCCN(CCS(=O)(=O)N[C@H]3CC4=C(c5ccn(C(F)F)n5)[C@H](c5ccc(F)cc5Cl)N=C(c5nccs5)N4C3)C2)C1` (stereo partly drawn) [Example 67] was tested, and the EC50 was > 400 nM.
In the case of `O=C(NCC(O)c1ccccn1)N[C@H]1CC2=C(c3ccn(C(F)F)n3)[C@H](c3ccc(F)cc3Cl)N=C(c3nccs3)N2C1` (stereo partly drawn) [Example 218], the EC50 is reported as > 400 nM.
For `O=C(N[C@H]1CC2=C(c3ccn(C(F)F)n3)[C@H](c3ccc(F)cc3Cl)N=C(c3nccs3)N2C1)C1CCC1` [Example 237], the EC50 was 100 to 400 nM.
For `ONC[C@@]1(O)CC2=C(c3ccn(C(F)F)n3)[C@H](c3ccc(F)cc3Cl)N=C(c3nccs3)N2C1` [Example 122], the EC50 was > 400 nM.
Compound `C=CCOC[C@]1(O)CC2=C(c3ccn(C(F)F)n3)[C@H](c3ccc(F)cc3Cl)N=C(c3nccs3)N2C1` [Example 108] has an EC50 of 100 to 400 nM.
For `O=S(=O)(N[C@H]1CC2=C(c3ccn(C(F)F)n3)[C@H](c3ccc(F)cc3Cl)N=C(c3nccs3)N2C1)c1ccc(F)cc1` [Example 392], the EC50 was 100 to 400 nM.
In the case of `O=C(O)CCS(=O)(=O)N[C@H]1CC2=C(c3ccn(C(F)F)n3)[C@H](c3ccc(F)cc3Cl)N=C(c3nccs3)N2C1` [Example 10], the EC50 is reported as > 400 nM.
For `CC1(NS(=O)(=O)N[C@H]2CC3=C(c4ccn(C(F)F)n4)[C@H](c4ccc(F)cc4Cl)N=C(c4nccs4)N3C2)CCC1` [Example 416], the EC50 was < 100 nM.
In the case of `O=S(=O)(C[C@]1(F)CC2=C(c3ccn(C(F)F)n3)[C@H](c3ccc(F)cc3Cl)N=C(c3nccs3)N2C1)c1ccccc1` [Example 195], the EC50 is reported as < 100 nM.
In the case of `COC(=O)c1cccc(S(=O)(=O)N[C@H]2CC3=C(c4ccn(C(F)F)n4)[C@H](c4ccc(F)cc4Cl)N=C(c4nccs4)N3C2)c1` [Example 2], the EC50 is reported as < 100 nM.
`CC(C)(O)[C@H]1CCCN1S(=O)(=O)N[C@H]1CC2=C(c3ccn(C(F)F)n3)[C@H](c3ccc(F)cc3Cl)N=C(c3nccs3)N2C1` [Example 284] was tested, and the EC50 was < 100 nM.
Work on `O=C(N[C@H]1CC2=C(c3ccn(C(F)F)n3)[C@H](c3ccc(F)cc3Cl)N=C(c3nccs3)N2C1)[C@@H]1CC1c1ccccn1` (relative stereo) [Example 312] yielded an EC50 of 100 to 400 nM.
`O=C(O)C1CCN(S(=O)(=O)N[C@H]2CC3=C(c4ccn(C(F)F)n4)[C@H](c4ccc(F)cc4Cl)N=C(c4nccs4)N3C2)CC1` [Example 90] was tested, and the EC50 was < 100 nM.
`OCC(O)[C@]1(F)CC2=C(c3ccn(C(F)F)n3)[C@H](c3ccc(F)cc3Cl)N=C(c3nccs3)N2C1` (stereo partly drawn) [Example 169] gave an EC50 of 100 to 400 nM.
For `O=S(=O)(N[C@H]1CC2=C(c3ccn(C(F)F)n3)[C@H](c3ccc(F)cc3Cl)N=C(c3nccs3)N2C1)N1C[C@H](O)[C@@H](O)C1` [Example 101], the EC50 was < 100 nM.
In the case of `O=C(N[C@H]1CC2=C(c3ccn(C(F)F)n3)[C@H](c3ccc(F)cc3Cl)N=C(c3nccs3)N2C1)N1CCC1` [Example 210], the EC50 is reported as < 100 nM.
`COC(=O)CCCCS(=O)(=O)N[C@H]1CC2=C(c3ccn(C(F)F)n3)[C@H](c3ccc(F)cc3Cl)N=C(c3nccs3)N2C1` [Example 13] showed an EC50 of 100 to 400 nM.
For `C=CCN(C[C@]1(O)CC2=C(c3ccn(C(F)F)n3)[C@H](c3ccc(F)cc3Cl)N=C(c3nccs3)N2C1)S(C)(=O)=O` [Example 129], the EC50 was > 400 nM.
With `N#CC[C@]1(F)CC2=C(c3ccn(C(F)F)n3)[C@H](c3ccc(F)cc3Cl)N=C(c3nccs3)N2C1` [Example 193] the EC50 was > 400 nM.
With `O=C(N[C@H]1CC2=C(c3ccn(C(F)F)n3)[C@H](c3ccc(F)cc3Cl)N=C(c3nccs3)N2C1)OC1CCC1` [Example 253] the EC50 was < 100 nM.
In the case of `COC(=O)NC[C@@]1(F)CC2=C(c3ccn(C(F)F)n3)[C@H](c3ccc(F)cc3Cl)N=C(c3nccs3)N2C1` [Example 186], the EC50 is reported as 100 to 400 nM.
For `O=S(=O)(N[C@H]1CC2=C(c3ccn(C(F)F)n3)[C@H](c3ccc(F)cc3Cl)N=C(c3nccs3)N2C1)c1cccc(-c2ccccc2)n1` [Example 409], the EC50 was < 100 nM.
`O=S(=O)(N[C@H]1CC2=C(c3ccn(C(F)F)n3)[C@H](c3ccc(F)cc3Cl)N=C(c3nccs3)N2C1)c1cccc(Cl)c1F` [Example 396] gave an EC50 of 100 to 400 nM.
Work on `O=S(=O)(CCc1ccccn1)N[C@H]1CC2=C(c3ccn(C(F)F)n3)[C@H](c3ccc(F)cc3Cl)N=C(c3nccs3)N2C1` [Example 380] yielded an EC50 of 100 to 400 nM.
With `C[C@H](NS(=O)(=O)N[C@H]1CC2=C(c3ccn(C(F)F)n3)[C@H](c3ccc(F)cc3Cl)N=C(c3nccs3)N2C1)c1ccccn1` [Example 160] the EC50 was < 100 nM.
For `O=C(N[C@H]1CC2=C(c3ccn(C(F)F)n3)[C@H](c3ccc(F)cc3Cl)N=C(c3nccs3)N2C1)N1CCC(O)(c2ncc(C3CC3)s2)CC1` [Example 246], the EC50 was 100 to 400 nM.
`Fc1ccc([C@@H]2N=C(c3nccs3)N3C[C@@H](Nc4ccc(-c5ccccn5)cc4)CC3=C2c2ccn(C(F)F)n2)c(Cl)c1` [Example 330] showed an EC50 of 100 to 400 nM.
Work on `O=S(=O)(Nc1ccncc1)N[C@H]1CC2=C(c3ccn(C(F)F)n3)[C@H](c3ccc(F)cc3Cl)N=C(c3nccs3)N2C1` [Example 83] yielded an EC50 of 100 to 400 nM.
For `CC(=O)OCCCS(=O)(=O)N[C@H]1CC2=C(c3ccn(C(F)F)n3)[C@H](c3ccc(F)cc3Cl)N=C(c3nccs3)N2C1` [Example 310], the EC50 was < 100 nM.
In the case of `O=S(=O)(N[C@H]1CC2=C(c3ccn(C(F)F)n3)[C@H](c3ccc(F)cc3Cl)N=C(c3nccs3)N2C1)NC1(Cc2ccccn2)CC1` [Example 325], the EC50 is reported as 100 to 400 nM.
With `O=C(N[C@H]1CC2=C(c3ccn(C(F)F)n3)[C@H](c3ccc(F)cc3Cl)N=C(c3nccs3)N2C1)N1CCN(S(=O)(=O)c2ccccc2)CC1` [Example 228] the EC50 was > 400 nM.
With `CCCCS(=O)(=O)N[C@H]1CC2=C(c3ccn(C(F)F)n3)[C@H](c3ccc(F)cc3Cl)N=C(c3nccs3)N2C1` [Example 319] the EC50 was < 100 nM.
Compound `O=S(=O)(N[C@H]1CC2=C(c3ccn(C(F)F)n3)[C@H](c3ccc(F)cc3Cl)N=C(c3nccs3)N2C1)[C@H]1C[C@@H]1c1ccccn1` [Example 390] has an EC50 of 100 to 400 nM.
`C=CS(=O)(=O)N[C@H]1CC2=C(c3ccn(C(F)F)n3)[C@H](c3ccc(F)cc3Cl)N=C(c3nccs3)N2C1` [Example 50] was tested, and the EC50 was 100 to 400 nM.
`O=C(N[C@H]1CC2=C(c3ccn(C(F)F)n3)[C@H](c3ccc(F)cc3Cl)N=C(c3nccs3)N2C1)N1CCC(O)CC1` [Example 208] was tested, and the EC50 was < 100 nM.
In the case of `O=S(=O)(N[C@H]1CC2=C(c3ccn(C(F)F)n3)[C@H](c3ccc(F)cc3Cl)N=C(c3nccs3)N2C1)N1CCC(O)(c2cnc(C3CC3)s2)CC1` [Example 262], the EC50 is reported as < 100 nM.
`CC(C)[C@]1(O)CC[C@@H](c2ccc(S(=O)(=O)N[C@H]3CC4=C(c5ccn(C(F)F)n5)[C@H](c5ccc(F)cc5Cl)N=C(c5nccs5)N4C3)cc2)CC1` [Example 413] was tested, and the EC50 was < 100 nM.
For `O=C(N[C@H]1CC2=C(c3ccn(C(F)F)n3)[C@H](c3ccc(F)cc3Cl)N=C(c3nccs3)N2C1)N1CCOCC1` [Example 207], the EC50 was < 100 nM.
In the case of `CC(O)[C@]1(F)CC2=C(c3ccn(C(F)F)n3)[C@H](c3ccc(F)cc3Cl)N=C(c3nccs3)N2C1` (stereo partly drawn) [Example 176], the EC50 is reported as < 100 nM.
For `CCOC(=O)C(NS(=O)(=O)N[C@H]1CC2=C(c3ccn(C(F)F)n3)[C@H](c3ccc(F)cc3Cl)N=C(c3nccs3)N2C1)c1ccccn1` (stereo partly drawn) [Example 343], the EC50 was < 100 nM.
Compound `OCCOC[C@]1(O)CC2=C(c3ccn(C(F)F)n3)[C@H](c3ccc(F)cc3Cl)N=C(c3nccs3)N2C1` [Example 110] has an EC50 of 100 to 400 nM.
`O=C(O)c1cccc(S(=O)(=O)N[C@H]2CC3=C(c4ccn(C(F)F)n4)[C@H](c4ccc(F)cc4Cl)N=C(c4nccs4)N3C2)c1` [Example 5] was tested, and the EC50 was < 100 nM.
In the case of `O=S(=O)(N[C@H]1CC2=C(c3ccn(C(F)F)n3)[C@H](c3ccc(F)cc3Cl)N=C(c3nccs3)N2C1)c1cccc(C2CC2)n1` [Example 408], the EC50 is reported as < 100 nM.
With `CC1(C)CCCN(S(=O)(=O)N[C@H]2CC3=C(c4ccn(C(F)F)n4)[C@H](c4ccc(F)cc4Cl)N=C(c4nccs4)N3C2)C1` [Example 292] the EC50 was < 100 nM.
`CC[C@@H](NS(=O)(=O)N[C@H]1CC2=C(c3ccn(C(F)F)n3)[C@H](c3ccc(F)cc3Cl)N=C(c3nccs3)N2C1)c1ccccn1` [Example 352] was tested, and the EC50 was 100 to 400 nM.
`CC(C)OC(=O)N[C@H]1CC2=C(c3ccn(C(F)F)n3)[C@H](c3ccc(F)cc3Cl)N=C(c3nccs3)N2C1` [Example 202] was tested, and the EC50 was < 100 nM.
In the case of `O=C(N[C@H]1CC2=C(c3ccn(C(F)F)n3)[C@H](c3ccc(F)cc3Cl)N=C(c3nccs3)N2C1)N1CCC(O)(c2nccs2)CC1` [Example 244], the EC50 is reported as 100 to 400 nM.
`O/N=C/[C@]1(F)CC2=C(c3ccn(C(F)F)n3)[C@H](c3ccc(F)cc3Cl)N=C(c3nccs3)N2C1` [Example 179] was tested, and the EC50 was > 400 nM.
For `O=S(=O)(N[C@H]1CC2=C(c3ccn(C(F)F)n3)[C@H](c3ccc(F)cc3Cl)N=C(c3nccs3)N2C1)N1CCC[C@H]1C(F)(F)F` [Example 281], the EC50 was < 100 nM.
Compound `O=C(N[C@H]1CC2=C(c3ccn(C(F)F)n3)[C@H](c3ccc(F)cc3Cl)N=C(c3nccs3)N2C1)N1C[C@H](O)[C@@H](O)C1` [Example 230] has an EC50 of 100 to 400 nM.
In the case of `OC1(Cc2nnn[nH]2)CC2=C(c3ccn(C(F)F)n3)[C@H](c3ccc(F)cc3Cl)N=C(c3nccs3)N2C1` (stereo partly drawn) [Example 141], the EC50 is reported as > 400 nM.
For `COCCN(C)S(=O)(=O)N(C)[C@H]1CC2=C(c3ccn(C(F)F)n3)[C@H](c3ccc(F)cc3Cl)N=C(c3nccs3)N2C1` [Example 268], the EC50 was < 100 nM.
